From EP0678516B1, “Preparation of 2-bromo-5-(2-bromo-2-nitrovinyl)-furan and its use as microcide” (CENTRO DE BIOACTIVOS QUIMICOS DE LA UNIVERSIDAD CENTRAL DE …, priority 1994, dated 1995)

Tests used:
[1] = system: Bovine infectious queratoconjunctivitis; test: Clinical test, external treatment of eye infections in animals; assay type: in vivo; conditions: Cows (PE), small scale controlled clinical test
Text: (§1) The effectiveness of the active principle against bacterial eye diseases in: 9435 animal eyes affected with queratoconjunctivitis; 8093 of cattle and 1342 of other species (sheep, rabbits, dogs, horses, pigs, cats, guinea-pigs and birds).
(§2) In some cases the result of the medicament was compared with others habitually used for these treatments.
(§3) Read: 1 = Bovine infectious queratoconjunctivitis (PE) = small scale or clinical test in conditions controlled on a small scale (U) = ointment (I) = injectable n = number of eyes treated P± = Average of treatment for clinical recuperation (weighted average) Rc = clinical recuperation 2 = conjunctivitis 3 = Querratitis 4= Queratoconjunctivitis 5= Blefaritis 6= general eye infection 7= clinical extension or test compared in conditions of extension (*) = Massive application in therapeutic survey in the new different animal species (G-1) = refers to 2-bromo-5-(2-bromo-2-nitro-vinyl)-furan

[2] = system: conjunctivitis and Blefaritis; test: as above; assay type: in vivo; conditions: Rabbits
Text: as §1, §2, §3

[3] = system: conjunctivitis, Querratitis, Queratoconjunctivitis; test: as above; assay type: in vivo; conditions: Dogs
Text: as §1, §2, §3

[4] = system: Bovine infectious queratoconjunctivitis; test: Clinical test, external treatment of eye infections in animals (extension); assay type: in vivo; conditions: Cattle (E)
Text: as §1, §2, §3

[5] = system: septic puerperal metritis; test: Treatment of septic puerperal metritis; assay type: in vivo, female oxes; conditions: G-1 1.5% oil solution intrauterine, Tetracycline abdominal aorta route
Experimental: The treatment consisted in applying 40 ml for three consecutive days at intervals of 24 hours from the diagnosis of the disease process. Treatment was compared with intrasoric tetracyclin.

[6] = system: Streptococcus agalactiae and Staphylococcus aureus; test: Intracisternal treatment of clinical mastitis; assay type: in vivo, femal oxes
Text: The active principle in a concentration of 0.1 % is applied by intracisternal route daily for three consecutive days in femal oxes clinically affected by mastitis of morbid catarrh purulen course types, in which the isolated micro-organisms were Streptococcus agalactiae and Staphylococcus aureus. As a control medicament the mammary infusion of neomicine was used.

`O=C(N[C@H](CO)[C@H](O)c1ccc([N+](=O)[O-])cc1)C(Cl)Cl` [Chloran-fenicol-(I), Chloran-fenicol] was tested, and the “P± (Average of treatment for clinical recuperation, weighted average)” value [1] was 3.1ab and the “Re (clinical recuperation)” value [1] was 80.6ba %.

With `O=C(N[C@H](CO)[C@H](O)c1ccc([N+](=O)[O-])cc1)C(Cl)Cl` [Chloran-fenicol-(U), Chloran-fenicol] the “P± (Average of treatment for clinical recuperation, weighted average)” value [2] was 3.2a, the “P± (Average of treatment for clinical recuperation, weighted average)” value [3] was 7.3b and the “Re (clinical recuperation)” value [3] was 81.5a %. The “P± (Average of treatment for clinical recuperation, weighted average)” value [4] was 3.4a and the “Re (clinical recuperation)” value [4] was 86.6a %.

In the case of `CN(C)[C@@H]1C(O)=C(C(N)=O)C(=O)[C@@]2(O)C(O)=C3C(=O)c4c(O)cccc4[C@@](C)(O)[C@H]3C[C@@H]12` [Tetracycline, reference compound], the Recuperated n ([5]; 27 females, 19 females) is reported as 13, the “IIA (Artificial insemination index)” value [5] is reported as 1.78± 1.99b and the Recuperated % [5] is reported as 68.4%. The “T-R (Average of treatment interval of clinical recuperation)” value [5] was 39 days and the “IIA (Artificial insemination index)” value ([5]; listed as tetracycline) was 1.78 ± 1.99.

For neomicine [reference compound], the “Recuperated n (affected parts)” value ([6]; G-I 0.1% intracisternal daily for three days (57 parts), neomicine mammary infusion (12 parts)) was 12 and the “Recuperated % (clinical recuperation of the affected parts)” value ([6]; G-I 0.1% intracisternal daily for three days, neomicine mammary infusion) was 100%.
